{"source": "the Deep4Chem optical property database", "assay": "solvent given as SMILES"}
{"smiles": "N#Cc1nc2c3ccc(-c4ccc(-n5c6ccccc6c6ccccc65)cc4)cc3c3cc(-c4ccc(-n5c6ccccc6c6ccccc65)cc4)ccc3c2nc1C#N", "values": [{"measurement": "absorption maximum", "setting": "in Cc1ccccc1", "result": 418, "unit": "nm"}]}
{"smiles": "O=C1c2ccc(N(c3ccc(-c4ccccc4)cc3)c3ccc(-c4ccccc4)cc3)cc2C(=O)c2ccc(N(c3ccc(-c4ccccc4)cc3)c3ccc(-c4ccccc4)cc3)cc21", "values": [{"measurement": "absorption maximum", "setting": "in Cc1ccccc1", "result": 464, "unit": "nm"}]}
{"smiles": "COc1ccc(OC)c(C=O)c1", "values": [{"measurement": "absorption maximum", "setting": "in C1CCOC1", "result": 349, "unit": "nm"}, {"measurement": "absorption maximum", "setting": "in C1COCCO1", "result": 348, "unit": "nm"}, {"measurement": "absorption maximum", "setting": "in CC#N", "result": 349, "unit": "nm"}, {"measurement": "absorption maximum", "setting": "in CC(C)=O", "result": 349, "unit": "nm"}, {"measurement": "absorption maximum", "setting": "in CCCO", "result": 352, "unit": "nm"}, {"measurement": "absorption maximum", "setting": "in CCO", "result": 352, "unit": "nm"}, {"measurement": "absorption maximum", "setting": "in CN(C)C=O", "result": 351, "unit": "nm"}, {"measurement": "absorption maximum", "setting": "in CN(C)P(=O)(N(C)C)N(C)C", "result": 352, "unit": "nm"}, {"measurement": "absorption maximum", "setting": "in CNC=O", "result": 352, "unit": "nm"}, {"measurement": "absorption maximum", "setting": "in CO", "result": 352, "unit": "nm"}, {"measurement": "absorption maximum", "setting": "in CS(C)=O", "result": 353, "unit": "nm"}, {"measurement": "absorption maximum", "setting": "in ClC(Cl)Cl", "result": 352, "unit": "nm"}, {"measurement": "absorption maximum", "setting": "in NC=O", "result": 356, "unit": "nm"}]}
{"smiles": "CNc1cccc2c1C(=O)c1ccccc1C2=O", "values": [{"measurement": "absorption maximum", "setting": "in C1CCC2CCCCC2C1", "result": 488, "unit": "nm"}, {"measurement": "absorption maximum", "setting": "in C1CCCCC1", "result": 488, "unit": "nm"}, {"measurement": "absorption maximum", "setting": "in CC1CCCCC1", "result": 489, "unit": "nm"}, {"measurement": "absorption maximum", "setting": "in CC#N", "result": 501, "unit": "nm"}, {"measurement": "absorption maximum", "setting": "in CCC(C)CC", "result": 487, "unit": "nm"}, {"measurement": "absorption maximum", "setting": "in CCCCCC", "result": 487, "unit": "nm"}, {"measurement": "absorption maximum", "setting": "in CCOC(C)=O", "result": 497.5, "unit": "nm"}]}
{"smiles": "COc1cc(OC)cc(C2=C3C(C)=C(I)C(C)=[N+]3[B-](F)(F)n3c(C)c(I)c(C)c32)c1", "values": [{"measurement": "absorption maximum", "setting": "in CS(C)=O", "result": 538, "unit": "nm"}]}
{"smiles": "COc1ccc(-c2ccc(-c3ccc(F)cc3)cc2)cc1", "values": [{"measurement": "absorption maximum", "setting": "in C1COCCO1", "result": 291, "unit": "nm"}]}
{"smiles": "CCCCCCCCOc1ccc(-c2c3c4n(c(-c5ccc(OCCCCCCCC)cc5)c3c3n2[B-](F)(F)[n+]2c(ccc5cc(C(C)(C)C)ccc52)C=3C#N)[B-](F)(F)[n+]2c(ccc3cc(C(C)(C)C)ccc32)C=4C#N)cc1", "values": [{"measurement": "absorption maximum", "setting": "in ClC(Cl)Cl", "result": 754, "unit": "nm"}]}
{"smiles": "CCOC(=O)/N=c1/oc2c(OC)cccc2cc1C#N", "values": [{"measurement": "absorption maximum", "setting": "in ClCCl", "result": 374, "unit": "nm"}]}
{"smiles": "CC1(C)c2cc(/C=C/c3nc(/C=C/c4ccc5c(c4)C(C)(C)c4cc(N(c6ccccc6)c6ccc7ccccc7c6)ccc4-5)nc(/C=C/c4ccc5c(c4)C(C)(C)c4cc(N(c6ccccc6)c6ccc7ccccc7c6)ccc4-5)n3)ccc2-c2ccc(N(c3ccccc3)c3ccc4ccccc4c3)cc21", "values": [{"measurement": "absorption maximum", "setting": "in C1CCOC1", "result": 403, "unit": "nm"}]}
{"smiles": "Cc1cc(=O)oc2ccc3ccc(O)cc3c12", "values": [{"measurement": "absorption maximum", "setting": "in CC#N", "result": 347, "unit": "nm"}, {"measurement": "absorption maximum", "setting": "in CCO", "result": 350, "unit": "nm"}]}
{"smiles": "CC(=O)c1ccc(-c2cnc3nn4ccccc4c3c2)cc1", "values": [{"measurement": "absorption maximum", "setting": "in C1CCOC1", "result": 386, "unit": "nm"}]}
{"smiles": "O=c1c2ccccc2c2c3c(cccc13)c(-c1ccccc1)c1c3cccc4cccc(c43)c12", "values": [{"measurement": "absorption maximum", "setting": "in CC#N", "result": 462, "unit": "nm"}, {"measurement": "absorption maximum", "setting": "in CO", "result": 461, "unit": "nm"}]}
{"smiles": "COc1ccc(-c2c3cc4ccccc4cc3c(C#Cc3ccccc3)c3cc4ccccc4cc23)cc1", "values": [{"measurement": "absorption maximum", "setting": "in ClCCl", "result": 635, "unit": "nm"}]}
{"smiles": "COc1cc2c(cc1-c1ccccc1)Cc1c3c(c4c(c1-2)-c1cc(OC)c(-c2ccccc2)cc1C4)C(=O)N(CCC(C)C)C3=O", "values": [{"measurement": "absorption maximum", "setting": "in C1CCOC1", "result": 405, "unit": "nm"}, {"measurement": "absorption maximum", "setting": "in CC#N", "result": 406, "unit": "nm"}, {"measurement": "absorption maximum", "setting": "in CC(C)=O", "result": 407, "unit": "nm"}, {"measurement": "absorption maximum", "setting": "in CCOC(C)=O", "result": 405, "unit": "nm"}, {"measurement": "absorption maximum", "setting": "in CS(C)=O", "result": 413, "unit": "nm"}, {"measurement": "absorption maximum", "setting": "in Cc1ccccc1", "result": 405, "unit": "nm"}, {"measurement": "absorption maximum", "setting": "in ClC(Cl)Cl", "result": 414, "unit": "nm"}, {"measurement": "absorption maximum", "setting": "in ClCCl", "result": 411, "unit": "nm"}]}
{"smiles": "CCCCOC(=O)c1cc(Cl)c2c3c(Cl)cc4c5c(cc(Cl)c(c6c(Oc7ccc(OC)cc7)cc(C(=O)OCCCC)c1c26)c53)C(=O)N(c1c(C(C)C)cccc1C(C)C)C4=O", "values": [{"measurement": "absorption maximum", "setting": "in Cc1ccccc1", "result": 519, "unit": "nm"}]}
